Source: US5342970A, “Hydrosoluble coumarin derivatives, their preparation and their use as an enzyme substrate or for the preparation of such substrates” (priority 1991, dated 1994)
“And” between values parts separate entries of the source, which are not always exact repeats. Identical values can stand only once. Counter-ions that a name gives are not always drawn. Like-named read-outs stand apart in the source and are kept apart here. Blank lines part the entries; values can stand above or below the molecule they belong to.

Columns and labels:
[1] = Excitation and emission spectra of substrates and hydrolysis products (Table 1); type: physicochemical
[2] = Solubility in water and in water-ethanol mixtures; type: physicochemical; details: water; read-out: Solubility in water
[3] = Ratio of fluorescence intensities of hydrolysis product and substrate; type: physicochemical; details: equimolar concentration, at the measurement wavelength
[4] = Excitation and emission spectra of ATC derivatives (Table 4); type: physicochemical; details: 10^-7 M; Z-Arg-ATC in 50 mM Tris pH 8, 10 mM CaCl2
Description: The excitation and emission spectra of ATC and Z-Arg-ATC were plotted on the basis of 10^-7 M solutions in the 50 mM Tris buffer at pH 8 containing 10 mM of CaCl2. The maxima obtained are indicated in table 4 with the corresponding maxima of Leu-ATC.

[5] = tested on: Leucine aminopeptidase; assay: Enzymatic hydrolysis of substrate by leucine aminopeptidase, Michaelis kinetics; type: biochemical
Description: As a result of the possible presence in the substrate Leu ATC (compound 13) of a trace of ATC, i.e. 7-amino-4-(2',5',8'-trioxanonyl)-coumarin, which is the hydrolysis product, use was made of a kinetic method for determining the enzymatic activity of leucine aminopeptidase, i.e. the signal is constituted by the fluorescence intensity difference at 2 minutes and 12 minutes. In this way it is possible to eliminate the interference of the ATC present prior to hydrolysis.
The initial speed of the reaction was studied for a concentration of the substrate constituted by compound 13 (Leu-ATC) between 2×10^-5 mole/l and […] using the following reagents:
Crystalline Leu-ATC hydrochloride of example 13: aqueous solutions 4×10^-5 to 4×10^-3 mole/l,
Leucine aminopeptidase (Sigma, ref N5006): aqueous solution at 7.53 μg/ml in 0.2M Tris buffer, pH7.8,
Tris buffer: solution A: 0.2M Tris, i.e. 24.23 g/l, solution B: 0.1M HCl.
This buffer is prepared by mixing 25 ml of solution A and 33.7 ml of solution B and by topping up to 100 ml with water. The pH must be 7.8.
1.17N perchloric acid solution (1/10 dilution of the pure acid).
For this determination, preparation firstly takes place in tubes of the following range of substrate concentrations (compound 13, Leu-ATC): 0-2-4-10-20-50-100-200×10^-5 M (final concentration).
To each tube is added a concentration of 1.51 μg/ml of Leucine aminopeptidase, everything being dissolved in the Tris buffer at pH 7.8, preheated to 37° C., whilst the tubes are in a water bath thermostatically controlled to 37° C. After 2 min, 250 μl are removed from each tube and poured into tubes containing 250 μl of perchloric solution and 750 μl of water. The same operation is repeated after 6 min. All the tubes are diluted to 1/1000. The intensity of the fluorescence IF is measured at 370/480 nm. The difference of the intensities at 6 and 2 min: […] constitutes the signal.
The corresponding ATC concentration is calculated relative to a calibration range between 10^-9 and 10^-8 M. The results are given in the following table 2:
The speed constant kcat is calculated by the ratio Vm/Ez, in which Vm is the maximum speed in μmole/s/mg/Ez and Ez is the enzyme quantity in 1 mg, expressed in μmole. The molar mass of Leucine aminopeptidase is 300000.
This curve has a hyperbolic behaviour characteristic of a Michaelis kinetics. The experimental points were adjusted to the corresponding equation by non-linear regression (Graphpad software) and made it possible to determine the affinity constant Km, the maximum speed Vm and the speed constant kcat (ratio of the maximum speed to the enzyme concentration).

[6] = tested on: Leucine aminopeptidase; assay: Determination of leucine aminopeptidase, analytical characteristics of the reaction; type: biochemical
Description: The reaction conditions were determined following the preceding stage. The Leu-ATC substrate concentration was chosen to give a maximum speed (1 mM). The reaction time was made 12 minutes by measuring the difference of the fluorescence intensities at 12 and 2 minutes. In order to evaluate the quantification limit, measure the repeatability and test the linearity, […] were prepared containing concentrations of 0-0.05-0.10-0.25-0.50-1 μg/ml using the same reagents as previously and giving the following range:
In order to carry out the evaluation, a series of tubes was prepared containing 750 μl of water+250 μl of 1.17N perchloric solution and at time 2 min, transfer thereto took place of 250 μl of each sample of the enzyme range. The same took place at time 12 min. This was followed by the dilution of all the tubes to 1/200 in water and the reading of the fluorescence (370/480 nm) with a gain of 2 on the Perkin Elmer LS3B fluorimeter.
The results obtained are given in FIG. 25, with which is the mean calibration curve illustrating the variation of the fluorescence intensity as a function of the enzyme concentration (μg/ml). This calibration curve was determined by linear regression. The mean standard deviation is 153±7.36 for the gradient and -3.10±1.16 for the intercept.
The quantification limit, calculated by the ratio […], is 0.02 μg/ml.
The repeatability, evaluated by the variation coefficient, is 17% at 0.05 μg/ml, 8% at 0.25 μg/ml and 4% at 1 μg/ml.

[7] = tested on: Leucine aminopeptidase; details: known substrates, for comparison; medium with organic solvent; cited from earlier work
[8] = tested on: Leucine aminopeptidase; details: comparison substrate Leu-AMC; cited from earlier work
[9] = substrate: COCCOCCOCc1cc(=O)oc2cc(NC(=O)[C@H](CCCNC(=N)N)NC(=O)OCc3ccccc3)ccc12; assay: Hydrolysis of substrate by trypsin, Michaelis kinetics; type: biochemical, pig; details: other: Tris buffer pH 8.0 + CaCl2 10 mM, ambient temperature
Description: Crystalline Z-Arg-ATC hydrochloride (Seratec): 10^-3 M solution in Tris buffer, pH 8.0+CACl2, 10 mM.
Pig pancreas trypsin (SIGMA T0134): 10^-3 M solution in Tris buffer, pH 8.0+CACl2, 10 mM.
Tris buffer: solution A: 0.2M Tris, i.e. 24.23 g/l+CaCl2, 40 mM, i.e. 5.88 g/l; solution B: 0.1M HCl.
This buffer is prepared by mixing 250 ml of solution A with 268 ml of solution B and by topping up to 1 liter with water.
Acetate buffer: solution A: 0.02M acetic acid; solution B: 0.02M sodium acetate.
This buffer is prepared by mixing volume by volume solutions A and B to obtain a buffer at pH 4.75.
Aqueous 1.17N perchloric acid solution (1/10 dilution of pure acid).
The following substrate concentration range was prepared in tubes: 0-0.2-0.5-1-2-5-10×10^-4 M (final concentration).
To each tube was added a concentration of 6.67 μg/ml of trypsin, everything being dissolved in the Tris buffer pH 8.0+CaCl2, 10 mM and at ambient temperature. The enzyme is added at time 0. After 2 minutes, 250 μl are removed from each tube and poured into tubes containing 250 μl of 1.17N perchloric acid and 500 μl of water. The tubes are centrifuged and then the solution is diluted to 1/250 in the acetate buffer. The same operation is repeated at 17 min. The fluorescence intensity is measured at 380/490nm. The difference of the intensities at 17 and 2 min constitutes the signal.
The corresponding ATC concentration is calculated compared with a calibration range from 5×10^-9 to 2×10^-7 M.
This was followed by the determination of Km, Vm, kcat and the ratio kcat/Km. The results obtained are given in table 6, which also gives for comparison purposes the values obtained with Z-L-Arg-AMC and Bz DL Arg-AMC and Bz -L-Arg-AMC.

[10] = Tris buffer pH 7.8, 37° C., no organic solvent
[11] = words, vs Leu AMC and Leu-βnaphthylamide
[12] = fluorescence intensity vs enzyme concentration (μg/ml), linear regression

- Maximum excitation wavelength, hydrolysis product ([1]; 10^-7 M in Tris buffer, pH 7.8): 350 nm
- Maximum fluorescence wavelength, hydrolysis product ([1]; 10^-7 M in Tris buffer, pH 7.8): 465 nm
- solubility [2]: 400 µg/mL and 1330 µM
- ratio of the fluorescence intensities of the hydrolysis product and the substrate [3]: approximately 400
Molecule: COCCOCCOCc1cc(=O)oc2cc(N)ccc12 [Compound 4, 7-amino-4-(2',5',8'-trioxanonyl)coumarin]

- excitation maximum, substrate [4]: 330 nm
- fluorescence maximum, substrate [4]: 405 nm
- ATC concentration in hydrolysis solution ([5]; Leu-ATC 2×10^-5 M): 1.7 µM/min
- ATC concentration in working solution ([5]; Leu-ATC 2×10^-5 M): 1.38 nM
- IF(6)-IF(2) ([5]; Leu-ATC 2×10^-5 M): 5.5
- ATC concentration in hydrolysis solution ([5]; Leu-ATC 4×10^-5 M): 3.6 µM/min
- ATC concentration in working solution ([5]; Leu-ATC 4×10^-5 M): 2.88 nM
- IF(6)-IF(2) ([5]; Leu-ATC 4×10^-5 M): 11.5
- ATC concentration in hydrolysis solution ([5]; Leu-ATC 10×10^-5 M): 6.6 µM/min
- ATC concentration in working solution ([5]; Leu-ATC 10×10^-5 M): 5.25 nM
- IF(6)-IF(2) ([5]; Leu-ATC 10×10^-5 M): 21
- ATC concentration in hydrolysis solution ([5]; Leu-ATC 20×10^-5 M): 12.0 µM/min
- ATC concentration in working solution ([5]; Leu-ATC 20×10^-5 M): 9.63 nM
- IF(6)-IF(2) ([5]; Leu-ATC 20×10^-5 M): 38.5
- ATC concentration in hydrolysis solution ([5]; Leu-ATC 50×10^-5 M): 14.1 µM/min
- ATC concentration in working solution ([5]; Leu-ATC 50×10^-5 M): 11.25 nM
- IF(6)-IF(2) ([5]; Leu-ATC 50×10^-5 M): 45
- ATC concentration in hydrolysis solution ([5]; Leu-ATC 100×10^-5 M): 14.7 µM/min
- ATC concentration in working solution ([5]; Leu-ATC 100×10^-5 M): 11.75 nM
- IF(6)-IF(2) ([5]; Leu-ATC 100×10^-5 M): 47
- ATC concentration in hydrolysis solution ([5]; Leu-ATC 200×10^-5 M): 15.0 µM/min
- ATC concentration in working solution ([5]; Leu-ATC 200×10^-5 M): 12.0 nM
- IF(6)-IF(2) ([5]; Leu-ATC 200×10^-5 M): 48
- Km [5, 10]: 110 µM
- Vm [5, 10]: 10.3 μmole/mg Ez/min
- kcat ([5]; ratio Vm/Ez, pH 7.8, 37° C.): 51.5 s⁻¹
- maximum speed compared with the other substrates [5, 11]: higher
- Maximum excitation wavelength, substrate ([1]; 10^-7 M in Tris buffer, pH 7.8): 330 nm
- Maximum fluorescence wavelength, substrate ([1]; 10^-7 M in Tris buffer, pH 7.8): 405 nm
- Stokes displacement compared with AMC and AMCS derivatives ([1]; words): greater
- repeatability (variation coefficient) ([6]; at 0.05 μg/ml enzyme): 17%
- repeatability (variation coefficient) ([6]; at 0.25 μg/ml enzyme): 8%
- repeatability (variation coefficient) ([6]; at 1 μg/ml enzyme): 4%
- gradient of calibration curve [6, 12]: 153±7.36
- intercept of calibration curve [6, 12]: -3.10±1.16
- quantification limit ([6]; leucine aminopeptidase, ratio 3 b/a, substrate 1 mM, 12 min): 0.02 µg/mL
Molecule: COCCOCCOCc1cc(=O)oc2cc(NC(=O)[C@@H](N)CC(C)C)ccc12 [Compound 13, L-leucine-4-(2',5',8'-trioxanonyl)-7-coumarinylamide hydrochloride]
- affinity for Leucine aminopeptidase compared with the other substrates [5, 11]: better than that of the two other substrates

- ratio of the fluorescence intensities of the hydrolysis product and the substrate [3]: ~250
Molecule: Nc1ccc2c(CS(=O)(=O)O)cc(=O)oc2c1 [AMCS, 7-amino-4-coumarinyl-methane sulphonic acid, reference compound]

- Maximum excitation wavelength, substrate ([1]; 10^-7 M in Tris buffer, pH 7.8): 327 nm
- Maximum fluorescence wavelength, substrate ([1]; 10^-7 M in Tris buffer, pH 7.8): 390 nm
Molecule: Cc1cc(=O)oc2cc(NC(=O)[C@@H](N)CC(C)C)ccc12 [Leu AMC]
- Km [7]: 160 µM
- Vm [7]: 4.0 μmole/mg Ez/min
- detection limit [8]: 0.03 µg/mL

B1: Pig pancreas trypsin (Sus scrofa) (protein)
chain: IVGGYTCAANSIPYQVSLNSGSHFCGGSLINSQWVVSAAHCYKSRIQVRLGEHNIDVLEGNEQFINAAKIITHPNFNGNTLDNDIMLIKLSSPATLNSRVATVSLPRSCAAAGTECLISGWGNTKSSGSSYPSLLQCLKAPVLSDSSCKSSYPGQITGNMICVGFLEGGKDSCQGDSGGPVVCNGQLQGIVSWGYGCAQKNKPGVYTKVCNYVNWIQQTIAAN
- Km [9]: 195 µM
- Vmax [9]: 3.16 µM/min
- kcat/Km [9]: 975 M⁻¹ s⁻¹
